Measurements reported in patent US6989375B2, “Enhanced expression of transgenes” (priority 1996, dated 2006).

What was measured:
[1] = tested on: primary normal human bronchial epithelial (NHBE) cells; assay: β-gal expression by X-gal staining after Ad/CMV/β-gal infection of CDDP-treated normal cells; assay type: cell-based; conditions: CDDP 0.062 μg/ml; 90% confluent
Protocol: (§1) The human non-small cell lung carcinoma cell lines H1299 and H460 were grown in RPMI-1640 medium supplemented with 5% heat-inactivated fetal calf serum (FCS), 10 mM glutamine, 100 units/ml of penicillin, 100 μg/ml of streptomycin and 0.25 μg/ml of amphotericin B. Human non-small cell lung carcinoma cell lines H358, H226br, and the cervical cancer cell line SiHa were maintained in complete RPMI-1640 medium supplemented with 10% FCS. The cell line A549 (human, non-small cell lung carcinoma) was grown in Ham's F12 nutrient mixture solution (Gibco BRL, Gaithersburg, Md.) similarly supplemented with antibiotics, glutamine and 10% FCS.
(§2) Gene Delivery Protocol: In vitro gene delivery was performed by incubating cells in six-well plates (Falcon Plastics, Lincoln Park, N.J.) for two hours with Adv/CMV/β-gal in appropriate medium supplemented with 2% FCS. The multiplicity of infection (MOI: number of viral particles per target cell) was based on cell counts of untreated wells. Fresh, complete medium with the appropriate concentration of FCS was then added to the wells at the end of the infection period and cells were then incubated for 20 hours at 37° C., 5% CO2. […] The transduction efficiency by Adv/CMV/β-gal was determined by the percentage of positive stained cells (blue) for β-galactosidase activity (1000 cells counted per well).

H1299 cells [2] = assay: Cell growth after 24-hour incubation with CDDP; assay type: cell-based, human
H1299 cells [3] = assay: β-gal expression after gene delivery with Ad/PLL/DNA complex or lipofectamine in CDDP-treated cells; assay type: cell-based, human; conditions: 48 hrs after CDDP removal
Protocol: Gene Transfer Vectors: The recombinant adenovirus carrying the Escherichia coli β-galactosidase gene under the control of the human cytomegalovirus enhancer/promotor (Ad/CMV/β-gal) or the replication defective adenovirus were propagated on 293 cells and purified and stored using techniques previously reported (Nguyen et al., 1996). Viral titer was determined by UV spectrophotometric analysis (Nguyen et al., 1996a; 1996b). To determine if the CDDP-induced enhancement of gene expression would be dependent on the method of gene delivery, two other gene delivery systems were used: the Ad/PLL/DNA complex (Nguyen et al., 1996a; 1996b) and cationic liposomes (Lipofectamine, Gibco BRL). CDDP (0.062 μg/ml)-treated H1299 cells were incubated with either gene delivery system carrying a plasmid that contained the β-gal gene under the control of the CMV enhancer/promotor (CMV/β-gal) 48 hours after drug removal. Plasmid DNA was isolated by the alkaline lysis technique and purified by using Qiagen DNA purification kits (Qiagen, Chatsworth, Calif.). Plasmid containing liposome preparations and gene transfer were performed according to the manufacturer's protocol. The conjugated Ad/PLL/DNA complex was constructed and used to deliver the β-gal gene to H1299 and H460 cells as described elsewhere (Nguyen et al., 1996a; 1996b).

H460 cells = assay: Cell growth after 24-hour incubation with CDDP; assay type: cell-based, human
[4] = tested on: primary human foreskin fibroblasts; conditions: 16 to 20 hours exposure to high concentrations, followed immediately by transduction; cited from earlier work
[5] = tested on: CDDP-resistant ovarian carcinoma cells (2008); conditions: CDDP four to six weeks prior (in vitro) or once one week prior (in vivo); cited from earlier work
[6] = tested on: p53 protein in H1299 cells; assay: Western blot analysis of p53 protein expression with densitometry; assay type: cell-based, human; conditions: CDDP = prior CDDP exposure, Adv/CMV/p53 = without prior CDDP
Protocol: H1299 cells were infected with Ad/CMV/p53 (MOI=1) 48 hrs after CDDP exposure. Cells were then harvested at 6, 12, 24, 36 and 48 hrs after transfection for Western blot analysis of p53 protein expression, as described elsewhere (Diller et al., 1990). Unexposed cells similarly transfected with Ad/CMV/p53 were used as controls. The human NSCLC cell line H322 which overexpresses mutant p53 protein was used as a positive control. Relative quantities of exogenous p53 protein were determined by densitometer (Molecular Dynamics, Sunnyvale, Calif.).

A549 = assay: β-gal expression by X-gal staining after Ad/CMV/β-gal infection of CDDP-treated cells; assay type: cell-based, human; conditions: gene transfer 48 hours after exposure to 0.062 μg/ml of CDDP; MOI=10
Protocol: as §1, §2

H1299 cells [7] = assay: Cell proliferation assay (daily cell counts); assay type: cell-based, human; conditions: for Increased inhibition of tumor proliferation compared to cells transfected with Adv/CMV/p53 only: CDDP 48 hrs prior to Adv/CMV/p53 (MOI 5)
Protocol: H1299 cells were exposed to CDDP (0.062 μg/ml of medium) for 24 hrs. Cells were then washed twice with PBS, trypsinized and seeded in 6-well plates (10^5 cells/well). Forty eight hours later, cells were infected with Ad/CMV/p53 at the multiplicity of infection (MOI) of 5. Daily cell counts were performed for 5 days following transfection to study the tumor suppression effect of the combination of sequential CDDP and adenovirus-mediated p53 gene transfer. Controls consisted of untreated cells or cells exposed to CDDP only, cells transfected with Ad/CMV/p53 only and cells transfected with d1312 (similar MOI) with or without prior CDDP treatment.

[8] = CDDP at 1 and 4 μg/ml for 24 hours, cells viable by trypan blue exclusion
[9] = CDDP concentrations lower than 0.25 μg/ml

## N.N.[Cl][Pt][Cl] [CDDP, cis-dichlorodimminocisplatin]
[1]
  Enhancement of gene expression in stationary normal cells: failed to enhance gene expression
H1299 cells [2]; [8]
  Cell growth, initial response: significant depression of growth to complete inhibition of proliferation
H1299 cells [2]; [9]
  Cell growth compared to control cell populations: remained unchanged
H1299 cells [3]; cationic phospholipid lipofectamine carrying CMV/β-gal plasmid
  β-gal gene expressing cells compared with adenovirus-mediated gene transfer: same magnitude
H1299 cells [3]; conjugated Ad/PLL/DNA complex carrying CMV/β-gal plasmid
  β-gal gene expressing cells compared with adenovirus-mediated gene transfer: same magnitude
H460 cells; [8]
  Cell growth, initial response: significant depression of growth to complete inhibition of proliferation
H460 cells; [9]
  Cell growth compared to control cell populations: remained unchanged
[4]
  Susceptibility to AAV transduction: more susceptible to transduction
[5]
  Gene transduction after CDDP exposure prior to liposome-mediated gene transfer: enhanced gene transduction
[6]; 12 hrs after Adv/CMV/p53 transfection (MOI=1)
  Relative level of p53 protein (normalized for β-actin): 0.73
[6]; 24 hrs after Adv/CMV/p53 transfection (MOI=1)
  Relative level of p53 protein (normalized for β-actin): 1.39
[6]; 36 hrs after Adv/CMV/p53 transfection (MOI=1)
  Relative level of p53 protein (normalized for β-actin): 1.49
[6]; 48 hrs after Adv/CMV/p53 transfection (MOI=1)
  Relative level of p53 protein (normalized for β-actin): 1.20
A549
  Magnitude of maximal enhancement of transgene expression (FIG. 4B): 1.6 fold
H1299 cells [7]; CDDP 0.0625 μg/ml for 24 hrs, alone
  Effect on cell growth in vitro: no effect on cell growth
H1299 cells [7]; day 3 after p53 transfer
  Increased inhibition of tumor proliferation compared to cells transfected with Adv/CMV/p53 only: 61%
H1299 cells [7]; day 5 after p53 transfer
  Increased inhibition of tumor proliferation compared to cells transfected with Adv/CMV/p53 only: 55%
